Measurements as given in patent publication US9936700B2, “Substituted quinoxaline derivatives as pest control agent” (BAYER CROPSCIENCE AKTIENGESELLSCHAFT, priority 2013, dated 2018).
Where two headings read alike, the source gives them in different places.

Tests used:
[1] = test system: Cooperia curticei; experiment: Cooperia curticei test (COOPCU); assay type: in vivo; settings: after 5 days
Protocol: Cooperia curticei test (COOPCU)
• Solvent: dimethyl sulfoxide
To produce a suitable preparation of active compound, 10 mg of active compound are mixed with 0.5 ml of dimethyl sulfoxide and the concentrate is diluted with “Ringer's solution” to the desired concentration.
Vessels containing the active compound preparation of the desired concentration are populated with about 40 nematode larvae (Cooperia curticei).
After 5 days, the kill in % is determined. 100% means that all the larvae have been killed; 0% means that none of the larvae have been killed.

[2] = test system: Myzus persicae; experiment: Myzus persicae spray test (MYZUPE); assay type: in vivo; settings: Chinese cabbage leaf discs, after 6 days
Protocol: Myzus persicae—spray test (MYZUPE)
• Solvent: 78 parts by weight of acetone • 1.5 parts by weight of dimethylformamide • Emulsifier: 0.5 part by weight of alkylaryl polyglycol ether
After 6 days, the efficacy in % is determined. 100% means that all the aphids have been killed; 0% means that no aphids have been killed.

[3] = test system: Aphis gossypii; experiment: Aphis gossypii spray test; assay type: in vivo; settings: cotton plants, after 6 days
Protocol: Aphis gossypii—spray test
(§1) • Solvent: 7 parts by weight of dimethylformamide • Emulsifier: alkylaryl polyglycol ether
(§2) To produce further test concentrations, the preparation is diluted with emulsifier-containing water. If the addition of ammonium salts or/and penetrants is required, these are each added in a concentration of 1000 ppm to the formulation solution.
After 6 days, the kill in % is determined. 100% means that all the aphids have been killed; 0% means that no aphids have been killed.

[4] = test system: Haemonchus contortus; experiment: Haemonchus contortus test (HAEMCO); assay type: in vivo; settings: after 5 days
From the text: Haemonchus contortus-test ([…]) • Solvent: dimethyl sulfoxide […] Vessels containing the active compound preparation of the desired concentration are populated with about 40 larvae of the red stomach worm (Haemonchus contortus).

[5] = test system: Phaedon cochleariae; experiment: Phaedon cochleariae spray test (PHAECO); assay type: in vivo; settings: 500 g/ha, Chinese cabbage leaf discs, after 7 days
Protocol: Phaedon cochleariae—spray test (PHAECO)
(§3) • Solvent: 78.0 parts by weight of acetone • 1.5 parts by weight of dimethylformamide • Emulsifier: 0.5 part by weight of alkylaryl polyglycol ether
After 7 days, the efficacy in % is determined. 100% means that all the beetle larvae have been killed; 0% means that no beetle larvae have been killed.

[6] = log P by reversed-phase HPLC (EEC Directive 79/831 Annex V.A8); assay type: physicochemical; settings: for chromatographic logP: reversed-phase C18 HPLC column
From the text: NMR data and log P values: log P (HCOOH)=log P[a] log P (neutral)=log P[b]
^[a] […] Called log P (HCOOH) in the table.
^[b] […] Called log P (neutral) in the table.

[7] = test system: Nippostrongylus brasiliensis; settings: 10 ppm, adult worms, 37° C., OD at 405 nm versus negative control
Protocol: Nippostrongylus brasiliensis test (NIPOBR)
Test method for in vitro experiments with Nippostrongylus brasiliensis
Adult Nippostrongylus brasiliensis is isolated from the small intestine of female Wistar rats and transferred into buffer solution containing 100 U/ml penicillin, 0.1 mg/ml streptomycin and 2.5 μg/ml amphotericin B.
The incubation of the worms (both sexes) is carried out in 1.0 ml of the medium also used for determining the acetylcholinesterase activity.
The compounds are dissolved in DMSO and added to the incubation medium such that final concentrations of 10 and 1 μg/ml, respectively, are present. The controls contain only DMSO.
Incubation is carried out at 37° C. and 5% CO2.
The enzyme determination is carried out using an aliquot of the medium. The AChE to be measured cleaves the substrate acetylthiocholine iodide (which is present as the iodide salt) into the products acetate and thiocholine.
In the subsequent reaction, thiocholine forms, with dithionitrobenzoic acid (DTNB, Ellman's reagent), a yellow dye (thionitrobenzoate).
The intensity of the color (=activity of AChE) is determined via the optical density (OD) photometrically at 405 nm and compared to the OD of the negative control.

[8] = test system: Meloidogyne incognita; settings: 20 ppm, lettuce, after 14 days
Protocol: Meloidogvne incognita test (MELGIN)
• Solvent: 125.0 parts by weight of acetone
The lettuce seeds germinate and the plants develop. The galls develop on the roots.
After 14 days, the nematicidal efficacy in % is determined by the formation of galls.

[9] = test system: Nilaparvata lugens; experiment: Nilaparvata lugens spray test (solvent dimethylformamide, 7 days); assay type: in vivo; settings: rice plants, after 7 days
Protocol: (§4) Nilaparvata lugens—spray test
If the addition of ammonium salts or/and penetrants is required, these are each added in a concentration of 1000 ppm to the formulation solution.
After 7 days, the efficacy in % is determined.

[10] = test system: Bemisia tabaci; experiment: Bemisia tabaci spray test; assay type: in vivo; settings: cotton plants, after 8 days
Protocol: Bemisia Tabaci—Spray Test
as §1, §2
After 8 days, the efficacy in % is determined. 100% means that all the whiteflies have been killed; 0% means that none of the whiteflies have been killed.

[11] = test system: Boophilus microplus; experiment: Boophilus microplus test (BOOPMI injection); assay type: in vivo; settings: 20 μg/animal, injection into the abdomen, after 7 days
Protocol: Boophilus microplus test (BOOPMI injection) • Solvent: dimethyl sulfoxide To produce a suitable preparation of active compound, 10 mg of active compound are mixed with 0.5 ml of solvent and the concentrate is diluted with solvent to the desired concentration. The active compound solution is injected into the abdomen (Boophilus microplus), and the animals are transferred into dishes and stored in a climate-controlled room. Efficacy is assessed after 7 days by laying of fertile eggs. Eggs which are not visibly fertile are stored in a climate-controlled cabinet until the larvae hatch after about 42 days.

[12] = test system: Nephotettix cincticeps; experiment: Nephotettix cincticeps test (NEPHCI); assay type: in vivo; settings: 100 ppm, rice plants, after 14 days
Protocol: Nephotettix cincticeps test (NEPHCI)
In the event that addition of ammonium salts or/and penetrants (rapeseed oil methyl ester) is required, these are each pipetted in a concentration of 1000 ppm after the finished formulation solution has been diluted.
After 14 days, the kill in % is determined. 100% means that all leafhoppers have been killed; 0% means that none of the leafhoppers have been killed.

[13] = test system: Spodoptera frugiperda; experiment: Spodoptera frugiperda spray test (SPODFR); assay type: in vivo; settings: 500 g/ha, maize leaf discs, after 7 days
Protocol: Spodoptera frugiperda—spray test (SPODFR)
• Solvent: 78.0 parts by weight of acetone • 1.5 parts by weight of dimethylformamide • Emulsifier: 0.5 parts by weight of alkylaryl polyglycol ether
After 7 days, the efficacy in % is determined. 100% means that all the caterpillars have been killed; 0% means that no caterpillars have been killed.

[14] = test system: Tetranychus urticae; experiment: Tetranychus urticae spray test, OP-resistant (TETRUR); assay type: in vivo; settings: 500 g/ha, bean leaf discs, after 6 days
Protocol: Tetranychus urticae—spray test, OP-resistant (TETRUR)
as §3
After 6 days, the efficacy in % is determined. 100% means that all the spider mites have been killed; 0% means that no spider mites have been killed.

[15] = test system: Nilaparvata lugens; settings: 500 g/ha, rice plants, after 4 days
Protocol: as §4
• Solvent: 52.5 parts by weight of acetone • 7 parts by weight of dimethylformamide • Emulsifier: alkylaryl polyglycol ether
To produce further test concentrations, the preparation is diluted with emulsifier-containing water.
After 4 days, the efficacy in % is determined. 100% means that all of the planthoppers have been killed; 0% means that none of the planthoppers have been killed.

[16] = acidic range, pH 2.7, 0.1% aqueous formic acid/acetonitrile
[17] = neutral range, pH 7.8, aqueous ammonium hydrogencarbonate/acetonitrile
[18] = acidic range, pH 2.7, 0.1% aqueous formic acid/acetonitrile, read-out: logP [a] = log P (HCOOH)
[19] = neutral range, pH 7.8, aqueous ammonium hydrogencarbonate/acetonitrile, read-out: logP [b] = log P (neutral)

FC(F)(F)c1ccc2ncc(-c3ccncc3)nc2c1 [Example I-9]
efficacy (kill of larvae) ([1]; 100 ppm): 100% | efficacy (aphids killed) ([2]; 500 g/ha): 90% | efficacy (kill of aphids) ([3]; 100 ppm): 85% | efficacy (kill of larvae) ([4]; 100 ppm): 100% | efficacy (beetle larvae killed) [5]: 100% | logP [a] = log P (HCOOH) [6, 16]: 2.13 | logP [b] = log P (neutral) [6, 17]: 2.75 | efficacy (category of AChE inhibition) [7]: 100% (100% (>84-100% inhibition))

FC1(F)Oc2cc3ncc(-c4ccncc4)nc3cc2O1 [Example I-74]
logP [a] = log P (HCOOH) [6, 16]: 1.98 | nematicidal efficacy (formation of galls) [8]: 90%

FC(F)(F)c1ccc2nc(-c3cccnc3)cnc2c1 [Example I-8]
efficacy (kill of larvae) ([1]; 100 ppm): 100% | efficacy (kill of larvae) ([4]; 100 ppm): 100% | logP [a] = log P (HCOOH) [6, 16]: 2.46 | efficacy (category of AChE inhibition) [7]: 84% (84% (60-84% inhibition))

Cc1cnccc1-c1cnc2ccc(C(F)(F)F)cc2n1 [Example I-30]
efficacy (kill of aphids) ([3]; 100 ppm): 100% | efficacy (planthoppers killed) ([9]; 100 ppm): 80% | logP [a] = log P (HCOOH) ([6]; pH 2.7): 2.12 | logP [b] = log P (neutral) ([6]; pH 7.8): 2.89 | efficacy (whiteflies killed) ([10]; 100 ppm): 100%

Cc1cnccc1-c1cnc2cc(C(F)(F)F)ccc2n1 [Example I-2, 2-(3-Methylpyridin-4-yl)-6-(trifluoromethyl)quinoxaline]
efficacy (aphids killed) ([2]; 750 g/ha): 90% | efficacy (kill of aphids) ([3]; 100 ppm): 80% | efficacy (planthoppers killed) ([9]; 20 ppm): 100% | chromatographic logP [6, 18]: 2.14 | chromatographic logP [6, 19]: 2.89 | efficacy (laying of fertile eggs) [11]: 85% | efficacy (whiteflies killed) ([10]; 20 ppm): 100% | efficacy (kill of leafhoppers) [12]: 100%

COc1cnccc1-c1cnc2cc(C(F)(F)F)ccc2n1 [Example I-11]
efficacy (aphids killed) ([2]; 750 g/ha): 90% | efficacy (kill of aphids) ([3]; 100 ppm): 100% | efficacy (planthoppers killed) ([9]; 100 ppm): 90% | logP [a] = log P (HCOOH) ([6]; pH 2.7): 2.59 | efficacy (whiteflies killed) ([10]; 100 ppm): 100%

CC[S+]([O-])c1ccccc1-c1cnc2cc(C(F)(F)F)ccc2n1 (stereo not drawn) [Example I-15]
efficacy (beetle larvae killed) [5]: 83% | efficacy (caterpillars killed) [13]: 100% | logP [a] = log P (HCOOH) ([6]; pH 2.7): 2.79 | logP [b] = log P (neutral) ([6]; pH 7.8): 2.78 | efficacy (spider mites killed) [14]: 100% | efficacy (whiteflies killed) ([10]; 100 ppm): 90%

CCSc1ccccc1-c1cnc2cc3c(cc2n1)OC(F)(F)O3 [Example I-34]
efficacy (beetle larvae killed) [5]: 100% | logP [a] = log P (HCOOH) ([6]; pH 2.7): 4.73 | efficacy (spider mites killed) [14]: 90%

Cc1cnccc1-c1cnc2cc3c(cc2n1)OC(F)(F)O3 [Example I-32]
efficacy (kill of larvae) ([1]; 20 ppm): 80% | efficacy (aphids killed) ([2]; 500 g/ha): 90% | efficacy (kill of aphids) ([3]; 100 ppm): 90% | efficacy (kill of larvae) ([4]; 20 ppm): 80% | logP [a] = log P (HCOOH) ([6]; pH 2.7): 1.99 | logP [b] = log P (neutral) ([6]; pH 7.8): 2.85

CCSc1ccccc1-c1cnc2cc(C(F)(F)F)ccc2n1 [Example I-14]
efficacy (beetle larvae killed) [5]: 100% | efficacy (caterpillars killed) [13]: 100% | logP [a] = log P (HCOOH) ([6]; pH 2.7): 4.80 | logP [b] = log P (neutral) ([6]; pH 7.8): 4.78 | efficacy (spider mites killed) [14]: 100%

CCSc1ccccc1-c1cnc2ccc(C(F)(F)F)cc2n1 [Example I-36]
efficacy (aphids killed) ([2]; 500 g/ha): 90% | efficacy (beetle larvae killed) [5]: 83% | logP [a] = log P (HCOOH) ([6]; pH 2.7): 4.79 | efficacy (laying of fertile eggs) [11]: 90% | efficacy (spider mites killed) [14]: 90%

CCc1cnccc1-c1cnc2cc3c(cc2n1)OC(F)(F)O3 [Example I-1, 6-(3-Ethylpyridin-4-yl)-2,2-difluoro[1,3]dioxolo[4,5-g]quinoxaline]
efficacy (aphids killed) ([2]; 500 g/ha): 90% | efficacy (kill of aphids) ([3]; 20 ppm): 85% | efficacy (planthoppers killed) ([9]; 20 ppm): 100% | chromatographic logP [6, 18]: 2.34 | chromatographic logP [6, 19]: 3.23 | efficacy (spider mites killed) [14]: 100%

CCc1cnccc1-c1cnc2cc(C(F)(F)F)ccc2n1 [Example I-26]
efficacy (planthoppers killed) ([9]; 100 ppm): 80% | logP [a] = log P (HCOOH) ([6]; pH 2.7): 2.53 | logP [b] = log P (neutral) ([6]; pH 7.8): 3.28 | efficacy (spider mites killed) [14]: 90% | efficacy (whiteflies killed) ([10]; 100 ppm): 96%

Clc1ccc2nc(-c3cccnc3)cnc2c1 [Example I-40]
efficacy (kill of larvae) ([1]; 20 ppm): 90% | logP [a] = log P (HCOOH) [6, 16]: 2.01 | logP [b] = log P (neutral) [6, 17]: 2.43

CCS(=O)(=O)c1ccccc1-c1cnc2cc(Cl)ccc2n1 [Example I-29]
efficacy (caterpillars killed) [13]: 83% | logP [a] = log P (HCOOH) ([6]; pH 2.7): 2.81 | logP [b] = log P (neutral) ([6]; pH 7.8): 2.82

FC1(F)Oc2cc3nc(Cl)c(-c4ccc(Cl)cc4)nc3cc2O1 [Example I-4, 6-Chloro-7-(4-chlorophenyl)-2,2-difluoro[1,3]dioxolo[4,5-g]quinoxaline]
efficacy (kill of larvae) ([4]; 20 ppm): 80% | chromatographic logP [6, 18]: 5.27

FC(F)(F)c1ccc2nc(-c3ccncc3)cnc2c1 [Example I-7]
efficacy (aphids killed) ([2]; 500 g/ha): 90% | efficacy (beetle larvae killed) [5]: 100% | logP [a] = log P (HCOOH) [6, 16]: 2.17 | logP [b] = log P (neutral) [6, 17]: 2.75 | efficacy (laying of fertile eggs) [11]: 80% | efficacy (whiteflies killed) ([10]; 100 ppm): 100% | nematicidal efficacy (formation of galls) [8]: 90% | efficacy (planthoppers killed) [15]: 90%
